Assays:
Type in all cases: in vivo
[1] = system: corn; assay: Corn field trials, grain yield; conditions: field trials in Illinois and Iowa; applied once in late June; vs untreated control
Description: The total amount of Compound 1 applied to each plot ranged from about 5 g/acre to about 20 g/acre.
Corn field trials were performed in Illinois and Iowa. In each trial, individual plots measured 10 feet by 30 feet and each treatment (application of Compound 1 or untreated control) was replicated across 4 plots in a randomized complete block design. Agronomic practices were maintained under standard commercial conditions and products used for weed, insect, and disease control. The Walnut, Illinois trial site was planted in mid-May and harvested in early October. The Richland, Iowa site was planted in late April and harvested in late September. Compound 1 was applied to both sites once in late June. Grain weight and grain moisture were measured for each plot at harvest, data is reported as bushels per acre normalized to 13% moisture content.

[2] = system: corn plants; assay: Greenhouse foliar application, gas exchange with LI-COR 6800 (carbon assimilation, transpiration, stomatal conductance); conditions: 0.8 fl. oz rate; 2 and 24 hour time points; compared to the mock
Description: Greenhouse application of Compound 1: Corn plants were grown in a greenhouse for 9 weeks (V5) prior to treatment. Eight plants were treated with a mock solution (formulation blank), low rate (0.8 fl. oz) or medium rate (1.7 fl. oz). The low rate and medium rate refer to the volume of the Compound 1 containing solution that is applied to 1 acre of corn plants, and roughly equates to 5 grams of Compound 1 per acre for low rate and about 10 grams of Compound 1 per acre for medium rate. The foliar blends were prepared by mixing the formula concentrations into water followed by vigorous mixing. To mimic a foliar application in a corn field (using a spray boom), a uniform coating of the entire plant was carried out (FIG. 2) using a hand-held spray bottle. Following application, the plants were separated to avoid cross contamination (aerosol drift) and allowed to dry. Measurement of carbon assimilation: Assessment of the effects of Compound 1 on photosynthesis in corn plants, tobacco plants, and soybean plants was performed using a LI-COR 6800 fluorimeter, which measured net carbon assimilation (Anet), transpiration (E) and stomatal conductance (gsw). The youngest fully expanded leaf with a fully formed ligule was used from each plant for sampling. A single sample (biological representative) consisted of averaging the readings from three technical representatives adjacent to each other on each sampled leaf. Each treatment consisted of eight biological representatives (N=8). Photobiology measurements were taken at 2 and 24 hour time points, post application.

[3] = system: corn plants; assay: Chlorophyll fluorescence with LI-COR 6800 after foliar application; conditions: for minimal fluorescence Fo / maximum fluorescence (Fm): dark-adapted; for light-adapted quantum efficiency of PSII (Fv′/Fm′): in comparison to the mock
Description: Greenhouse application of Compound 1: Corn plants were grown in a greenhouse for 9 weeks (V5) prior to treatment. […] The foliar blends were prepared by mixing the formula concentrations into water followed by vigorous mixing. To mimic a foliar application in a corn field (using a spray boom), a uniform coating of the entire plant was carried out (FIG. 2) using a hand-held spray bottle. Following application, the plants were separated to avoid cross contamination (aerosol drift) and allowed to dry. Measurement of chlorophyll fluorescence: Chlorophyll fluorescence measurements were determined 4 hrs and 24 hrs after treatment using a LI-COR 6800 fluorimeter (LI-COR Biosciences; Lincoln, Nebraska). Corn plants were dark-adapted 60-90 min prior to measurement and the youngest fully expanded leaf with a fully formed ligule was used for the measurement. Minimal fluorescence levels in the dark (Fo) and light (Fo′) were recorded by applying a measuring light of 12 μmol photons m^−2 s^−1. Maximum fluorescence levels in the dark (Fm) and light (Fm′) were recorded by applying a saturating pulse of light at 10,000 μmol photons m^−2 s^−1. Maximum quantum efficiency of PSII in the dark (Fv/Fm) and light (Fv′/Fm′) were calculated as (Fm−Fo/Fm) using their respective dark or light-adapted values. NPQ induction was measured after a 5 minute exposure to an actinic light source at 1,000 μmol photons m^−2 s^−1 and calculated as (Fm−Fm′/Fm′).

[4] = system: Corn (Syngenta Agrisure Artesian); assay: Cool Grow Procedure Two (foliar spray of DC formulation vs formulation blank)
Description: Corn (Syngenta Agrisure Artesian, Basel, Switzerland) seeds (n=2) were planted in 24 four inch pots containing Sunshine soil #1 (Sun Gro, Agawam, MA) mixed with ⅛ tbsp of 14-14-14 osmocote N—P—K (Bloomington Brands LLC, Bloomington, IN) slow-release fertilizer and Micromax (ICL Specialty Fertilizers) (lg/L). Pots were placed on plant holder trays (11×22 in) with three pots per tray and were set-up in a 4×4 ft Cool Grow tent (capacity: 35 one liter pots) with temperature set at 24° C. and light at 345 μmoL for 12 hours day and night. Upon emergence, one seedling was culled leaving only one plant per pot. Plants were fertilized weekly thereafter starting one week after germination with 20-20-20 NPK (1 tsp/gallon) (Bloomington Brands LLC, Bloomington, IN) applied at ˜800-1000 mL per tray.
At V2-3 stage (14 days after seeding), each plant was sprayed with 7.5 mL of the following formulations: formulation blank DC (12 plants total; Agnique® AMD 3L (N,N-dimethyl lactamide)); Compound 1 DC formulation (9.86 μL of DC formulation from Example 5 dissolved in 50 mL of water). After 90 minutes following spray treatment, photosynthetic measurements were made using Licor. Digital biomass and NDVI measurements were made 21 days after seeding by a PlantEye F600Multispectral 3D scanner (Phenospex, Netherlands) and plants were harvested at 27 days after seeding.

**Q.** `COC1=C(OC)[C@@H]([C@@H]2COC(C)(C)O2)OC1=O` [Compound 1, (5R)-5-(2,2-dimethyl-1,3-dioxolan-4-yl)-3,4-dimethoxyfuran-2(5H)-one] was tested. Which Corn yield [1] did it give?
**A.** Increases

**Q.** What about the “CO2 assimilation (Anet)” value [2] of the same molecule?
**A.** elevated

**Q.** And the “stomatal conductance (gsw)” value [2]?
**A.** elevated

**Q.** What about the “transpiration (E)” value [2] of the same molecule?
**A.** elevated

**Q.** What about the “light-adapted Fm′” value ([3]; 24 hrs post application) of the same molecule?
**A.** not higher

**Q.** And the “dark-adapted quantum efficiency of PSII (Fv/Fm)” value ([3]; both rates, after 24 hrs)?
**A.** higher

**Q.** And the “minimal fluorescence Fo” value ([3]; high rate, 4 hrs post foliar application, vs low rate and mock control)?
**A.** lower

**Q.** What about the “maximum fluorescence (Fm)” value ([3]; high rate, both timepoints (4 and 24 hrs)) of the same molecule?
**A.** higher

**Q.** And the “minimal fluorescence Fo” value ([3]; low and high rates, after 24 hrs, vs mock control)?
**A.** lower compared to the mock control

**Q.** What about the “maximum fluorescence (Fm)” value ([3]; low rate, after 24 hrs) of the same molecule?
**A.** higher

**Q.** What about the “light-adapted quantum efficiency of PSII (Fv′/Fm′)” value ([3]; high rate, 4 hrs post application) of the same molecule?
**A.** higher

**Q.** What about the “dark-adapted quantum efficiency of PSII (Fv/Fm)” value ([3]; high rate, after 4 hrs) of the same molecule?
**A.** higher

**Q.** And the “light-adapted quantum efficiency of PSII (Fv′/Fm′)” value ([3]; low rate, 24 hrs post application)?
**A.** higher

**Q.** And the “light-adapted Fm′” value ([3]; the two rates, 4 hrs post application)?
**A.** similarly higher

**Q.** What about the NDVI ([4]; 21 days after seeding, formulation blank DC 0.558, p<0.05) of the same molecule?
**A.** 0.569

**Q.** What about the “mean shoot dry weight” value ([4]; harvest 27 days after seeding, formulation blank DC 3.16, p<0.1) of the same molecule?
**A.** 3.62 g

From patent US20260137081A1, “SUBSTITUTED FURANONES AND USE THEREOF FOR AGRICULTURAL APPLICATIONS” (SOUND AGRICULTURE COMPANY, priority 2021, published 2026)
